Source: US8076485B2, “Methylphenidate derivatives and uses of them” (priority 2005, dated 2011)

How the values were obtained:
[1] = system: IL-13; test: IL-13 release by PBL (ELISA); assay type: cell-based, human; settings: for IL-13 release induced by PHA: Example 2, GR467 PBL, 15 μg/ml Cpd II, 15 μg/ml MP, 10 μM Dex, PHA 2 μg/ml, 96 hours, FIG. 3
Description: (§1) After this incubation, PHA was added to give a final concentration of 2 μg/ml, and the cells were incubated for an additional 96 hours at 37° C., 5% CO2. All cultures were performed in triplicate. Cells were then removed by centrifugation at 1000 rpm for 10 minutes, and the culture medium collected.
(§2) Release of IL-13 and interferon gamma (IFNγ) into the culture medium was measured by ELISA. To perform the ELISA, matched pairs of antibodies against human IL-13 and IFNγ were purchased from Pierce Biotechnology and Biosource, respectively. ELISA strip well plates were coated with 10 μg/ml of antibody (in phosphate-buffered saline (PBS)) to IL-13 and 4 μg/ml of antibody to IFNγ (in PBS) overnight at room temperature. The plates were then blocked using a 4% BSA solution in PBS for one hour, followed by the addition of 50 μl of experimental culture medium per well in duplicate. The plates were incubated at room temperature for one hour and then washed using 50 mM Tris pH 8.0 with 0.1% Tween 20. Then, solutions of 400 ng/ml biotinylated second antibody to IL-13 and 500 ng/ml biotinylated second antibody to IFNγ were made in blocking buffer, and 100 μl were added per well. The plates were incubated for 1 hour and washed again. A 1:8000 dilution of Strepavidin HRP (Pierce Biotechnology) conjugate was made in blocking buffer, and 100 μl were added to the wells and incubation continued for 30 minutes. A final wash step was performed, after which 100 μl Pierce Biotechnology TMB substrate were added to each well. Color was developed for 30 minutes and stopped by adding 100 μl 0.18 NH2SO4. OD was determined using microplate reader with a 450 nm filter.
After this incubation, PHA was added to give a final concentration of 5 μg/ml, and the cells were incubated for an additional 72 hours at 37° C., 5% CO2. All cultures were performed in triplicate. Cells were then removed by centrifugation at 1000 rpm for 10 minutes.
The supernatants were collected, and the concentrations of IL-13 and tumor necrosis factor alpha (TNFα) in the supernatants were measured by ELISA. The IL-13 ELISA was performed as described in Example 2.

[2] = system: IFNγ; test: IFNγ release by PBL (ELISA); assay type: cell-based, human; settings: Example 2, GR467 PBL, 15 μg/ml Cpd II, 15 μg/ml MP, 10 μM Dex, FIG. 4; for IFNγ release, cells stimulated with PHA: PHA 2 μg/ml, 96 hours
Description: as §1, §2

[3] = system: human umbilical vein endothelial cells (HUVECs); test: HUVEC tube formation assay; assay type: cell-based; settings: 18 hours, 5% FCS, 30 μg Cpd II or MP in 1 ml, LY 294002 50 μM
Description: Passage 4 (i.e., […]) human umbilical vein endothelial cells (HUVECs), human source lot number 9713 (obtained from ATCC) in 1 ml of endothelial growth medium-2 (EGM-2) (obtained from Cambrex) were mixed with 30 μg of the compound of formula II (Cpd II) in endothelial basal medium-2 (EBM-2) (Cambrex) or 30 μg methylphenidate (MP) in EBM-2. Water (vehicle for the two test compounds) was used as a control, and the PI3 kinase inhibitor, LY 294002 (Sigma), at 50 μM, was included as a positive control. Then, the cells were seeded at 10,000 cells/well into the wells of a plate contained in a tube formation assay kit obtained from BD Biosciences, Rockville, Md. The wells of the plate contained an extracellular matrix protein gel. Fetal calf serum (FCS) (ATCC) was added to a final concentration of 5% to initiate tube formation. Then, the plates were incubated for 18 hours at 37° C. and 5% CO2. Following the incubation, the plates were photographed with a digital camera attached to an inverted microscope (Olympus IMT-2 set at a phase contrast (PC) of 10).
When endothelial cells are cultured on extracellular matrix protein gels in the presence of angiogenic signals, they arrange themselves into structures loosely resembling capillary blood vessels. […]

[4] = system: IL-8; test: IL-8 release by TNFα-stimulated HUVECs (ELISA); assay type: cell-based, human; settings: for IL-8 release stimulated by TNFα: HUVECs, 10 ng/ml TNFα, Cpd II 1-30 μg/ml, MP 15 μg/ml, Dex 10 μM, LY 294002 10 μM
Description: Passage 4 HUVECs, human source lot number 8710 (obtained from ATCC), were put into the wells of a 24-well tissue culture plate at 5,000 cells/well in EGM-2 medium and cultured for 72 hours at 37° C. and 5% CO2. […] After incubation for 1 hour at 37° C. and 5% CO2, TNFα (Pierce) was added to give a final concentration of 10 ng/ml, and the cells were incubated for an additional 18 hours at 37° C. and 5% CO2. After this incubation, the supernatants were collected, and the amount of IL-8 in the supernatants determined by ELISA as described in Example 4.

[5] = Homo sapiens, HUVEC, 18 h, read-out: % inhibition (IL-8)

COC(=O)C(c1ccc(-c2ccccc2)cc1)C1CCCCN1 (stereo not shown) [Cpd II]
IL-13 release induced by PHA [1]: significantly inhibited IL-13 release
release of IL-13 from PHA-stimulated PBL ([1]; Example 3, GR191 PBL, Cpd II 15 and 50 μg/ml, Dex 10 μM, PHA 5 μg/ml, 72 hours, FIG. 6): significantly inhibited the release of IL-13
IFNγ release, unstimulated cells [2]: significantly inhibited IFNγ release
IFNγ release, cells stimulated with PHA [2]: significantly inhibited IFNγ release
tube formation (branching and cellular interaction of endothelial cells) [3]: reduced the amount of branching and cellular interaction
IL-8 release stimulated by TNFα [4]: decreased IL-8 release stimulated by TNFα in a dose-dependent manner
inhibition at 1 µg/mL [4, 5]: -51.1%
inhibition at 5 µg/mL [4, 5]: 3.08%
inhibition at 10 µg/mL [4, 5]: 38.2%
inhibition at 15 µg/mL [4, 5]: 41.7%
inhibition at 30 µg/mL [4, 5]: 86.9%

COC(=O)C(c1ccccc1)C1CCCCN1 (stereo not shown) [methylphenidate]
IL-13 release induced by PHA [1]: increased the release of IL-13
IL-13 release induced by PHA ([1]; listed as Methylphenidate): did not inhibit the release of IL-13
IFNγ release, unstimulated cells [2]: had some effect
IFNγ release, cells stimulated with PHA [2]: increased the release of IFNγ
IFNγ release, cells stimulated with PHA ([2]; listed as Methylphenidate): did not significantly suppress the release of IFNγ
tube formation (branching and cellular interaction of endothelial cells) [3]: no observable effect
IL-8 release stimulated by TNFα [4]: slightly decreased IL-8 release
inhibition at 15 µg/mL [4, 5]: 15.2%
